Results reported in ChEMBL document CHEMBL6121037, “Screening, Discovery, and Optimization of the Natural Antitubercular Chlorflavonin from a Marine-Derived Fungal Library” (J Nat Prod, 2025).
Counter-ions that a name gives are not always drawn. The source made the active and inactive calls. No cut-off for these calls is given here.

Experiments:
A549 [1] = assay: Cytotoxicity against human A549 cells at 20 uM by MTT assay; format: functional, cell-based
[2] = tested on: Mycobacterium tuberculosis; assay: Antitubercular activity against Mycobacterium tuberculosis H37Ra assessed as reduction in microbial growth; format: functional
Mycobacterium marinum = assay: Antibacterial activity against Mycobacterium marinum assessed as reduction in microbial growth at 100 ug/ml; format: functional, organism-based; settings: dose 100.0 µg/ml
Staphylococcus aureus = assay: Antibacterial activity against Staphylococcus aureus assessed as reduction in microbial growth at 25 ug/ml incubated for 24 hrs; format: functional, organism-based; settings: dose 25.0 µg/ml
A549 [3] = assay: Cytotoxicity against human A549 cells by MTT assay; format: functional, cell-based

Structure (SMILES)	Activity (A549 [1])	MIC90 [2] [µM]	Activity (Mycobacterium marinum)	Activity (Staphylococcus aureus)	IC50 (A549 [3]) [nM]
COc1cc(O)c2c(=O)c(OC)c(-c3cccc(Cl)c3OC(=O)c3cccc(Br)c3)oc2c1OC	inactive	1.8	inactive	inactive	
COc1c(Br)c(O)c2c(=O)c(OC)c(-c3cc(Br)cc(Cl)c3O)oc2c1OC	inactive		inactive	inactive	
COc1cc(/C=C/C(=O)Oc2c(Cl)cccc2-c2oc3c(OC)c(OC)cc(O)c3c(=O)c2OC)cc(OC)c1OC	inactive	1.7	inactive	inactive	
COc1cc(O)c2c(=O)c(OC)c(-c3cccc(Cl)c3OCCc3cccc(F)c3)oc2c1OC	inactive		inactive	inactive	
COc1cc(O)c2c(=O)c(OC)c(-c3cccc(Cl)c3OC(=O)/C=C/c3cccc(Cl)c3)oc2c1OC	inactive	0.9	inactive	inactive	
COc1cc(O)c2c(=O)c(OC)c(-c3cccc(Cl)c3OC(=O)c3cccc(C)c3)oc2c1OC	inactive		inactive	inactive	
COc1ccc(C(=O)Oc2c(Cl)cccc2-c2oc3c(OC)c(OC)cc(O)c3c(=O)c2OC)cc1	inactive	2	inactive	inactive	
COc1cc(O)c2c(=O)c(OC)c(-c3cccc(Cl)c3O)oc2c1OC	inactive	2.6	inactive	inactive	
COc1cc(C(=O)Oc2c(Cl)cccc2-c2oc3c(OC)c(OC)cc(OC(=O)c4cc(OC)c(OC)c(OC)c4)c3c(=O)c2OC)cc(OC)c1OC	inactive		inactive	inactive	
COc1cc(O)c2c(=O)c(OC)c(-c3cccc(Cl)c3OC(=O)/C=C/c3ccccc3Cl)oc2c1OC	inactive	0.7	inactive	inactive	
COc1cc(C(=O)Oc2c(Cl)cccc2-c2oc3c(OC)c(OC)cc(O)c3c(=O)c2OC)cc(OC)c1OC	inactive	1.8	inactive	inactive	
COc1cc(O)c2c(=O)c(OC)c(-c3cccc(Cl)c3OC(=O)N(C)C)oc2c1OC	inactive		inactive	inactive	
COc1cccc2c1C(=O)c1c(O)c3c(c(O)c1C2=O)C[C@@](O)(C(=O)CO)C[C@@H]3O[C@H]1C[C@H](N)[C@H](O)[C@H](C)O1 [DOXORUBICIN HYDROCHLORIDE]					250
COc1cc(O)c2c(=O)c(OC)c(-c3cccc(Cl)c3OC(=O)/C=C/c3ccc(C)cc3)oc2c1OC	inactive	1.9	inactive	inactive	
COc1cc(O)c2c(=O)c(OC)c(-c3cccc(Cl)c3OC(=O)/C=C/c3ccc(N(C)C)cc3)oc2c1OC	inactive		inactive	inactive	
COc1cc(O)c2c(=O)c(OC)c(-c3ccccc3O)oc2c1OC	inactive		inactive	inactive	
COc1cc(O)c2c(=O)c(OC)c(-c3cccc(Cl)c3OC(=O)c3cccnc3)oc2c1OC	inactive	2.1	inactive	inactive	
COc1cc(O)c2c(=O)c(OC)c(-c3cc(Br)cc(Cl)c3O)oc2c1OC	inactive		inactive	inactive	
COc1ccc(/C=C/C(=O)Oc2c(Cl)cccc2-c2oc3c(OC)c(OC)cc(O)c3c(=O)c2OC)cc1	inactive	1.9	inactive	inactive	
COc1cc(OCc2ccc(C(F)(F)F)cc2)c2c(=O)c(OC)c(-c3cccc(Cl)c3OCc3ccc(C(F)(F)F)cc3)oc2c1OC	inactive		inactive	inactive	
COc1cc(O)c2c(=O)c(OC)c(-c3cccc(Cl)c3OC(=O)c3cccc(N)c3)oc2c1OC	inactive	2	inactive	inactive	
COc1ccc(C(=O)Oc2c(Cl)cccc2-c2oc3c(OC)c(OC)cc(OC(=O)c4ccc(OC)cc4)c3c(=O)c2OC)cc1	inactive		inactive	inactive	

Structure (SMILES)	Activity (A549 [1])	MIC90 [2] [µM]	Activity (Mycobacterium marinum)	Activity (Staphylococcus aureus)	IC50 (A549 [3]) [nM]
COc1cc(O)c2c(=O)c(OC)c(-c3cccc(Cl)c3OC(=O)c3ccccc3)oc2c1OC	inactive	1	inactive	inactive	
COc1cc(OC(=O)c2cccc(F)c2)c2c(=O)c(OC)c(-c3cccc(Cl)c3OC(=O)c3cccc(F)c3)oc2c1OC	inactive	1.6	inactive	inactive	
COc1cc(O)c2c(=O)c(OC)c(-c3cccc(Cl)c3OC(=O)/C=C/c3ccsc3)oc2c1OC	inactive	1.9	inactive	inactive	
COc1cc(O)c2c(=O)c(OC)c(-c3cccc(Cl)c3OCc3ccc(C(C)(C)C)cc3)oc2c1OC	inactive		inactive	inactive	
COc1cc(OC(=O)c2cccc(Cl)c2)c2c(=O)c(OC)c(-c3cccc(Cl)c3OC(=O)c3cccc(Cl)c3)oc2c1OC	inactive		inactive	inactive	
COc1cc(OC(=O)c2cccs2)c2c(=O)c(OC)c(-c3cccc(Cl)c3OC(=O)c3cccs3)oc2c1OC	inactive		inactive	inactive	
COc1cc(O)c2c(=O)c(OC)c(-c3cccc(Cl)c3OC(=O)/C=C/c3cccnc3)oc2c1OC	inactive	2	inactive	inactive	
COc1cc(O)c2c(=O)c(OC)c(-c3cccc(Cl)c3OC(=O)/C=C/c3ccc(F)c(F)c3)oc2c1OC	inactive		inactive	inactive	
COc1cc(OCc2cccc(F)c2)c2c(=O)c(OC)c(-c3cccc(Cl)c3OCc3cccc(F)c3)oc2c1OC	inactive		inactive	inactive	
COc1cc(O)c2c(=O)c(OC)c(-c3cccc(Cl)c3OCc3ccc(F)cc3)oc2c1OC	inactive		inactive	inactive	
NNC(=O)c1ccncc1 [ISONIAZID]		0.3	inactive	inactive	
COc1cc(O)c2c(=O)c(OC)c(-c3cccc(Cl)c3OCc3cccc(C)c3)oc2c1OC	inactive		inactive	inactive	
COc1cc(O)c2c(=O)c(OC)c(-c3cccc(Cl)c3OC(=O)/C=C/c3ccc(C(F)(F)F)cc3)oc2c1OC	inactive	1.7	inactive	inactive	
COc1cc(OCc2ccc(C(C)(C)C)cc2)c2c(=O)c(OC)c(-c3cccc(Cl)c3OCc3ccc(C(C)(C)C)cc3)oc2c1OC	inactive		inactive	inactive	
COc1cc(O)c2c(=O)c(OC)c(-c3cccc(Cl)c3OC(=O)/C=C/c3ccccc3)oc2c1OC	inactive	2	inactive	inactive	
COc1cc(O)c2c(=O)c(OC)c(-c3cccc(Br)c3O)oc2c1OC		1.2			
COc1cc(OCc2cccc(C)c2)c2c(=O)c(OC)c(-c3cccc(Cl)c3OCc3cccc(C)c3)oc2c1OC	inactive		inactive	inactive	
COc1cc(OC(=O)c2ccccc2)c2c(=O)c(OC)c(-c3cccc(Cl)c3OC(=O)c3ccccc3)oc2c1OC	inactive	1.7	inactive	inactive	
COc1cc(OC(=O)/C=C/c2ccc(C(F)(F)F)cc2)c2c(=O)c(OC)c(-c3cccc(Cl)c3OC(=O)/C=C/c3ccc(C(F)(F)F)cc3)oc2c1OC	inactive		inactive	inactive	
COc1cc(OC(=O)c2cccc(N(C)C)c2)c2c(=O)c(OC)c(-c3cccc(Cl)c3OC(=O)c3cccc(N(C)C)c3)oc2c1OC	inactive		inactive	inactive	
COc1cc(O)c2c(=O)c(OC)c(-c3cccc(Cl)c3OC(=O)c3cccc(Cl)c3)oc2c1OC	inactive	1.9	inactive	inactive	
